According to PubChem BioAssay AID328 (DTP/NCI, 2004):
Several values for one entry are separate records, joined by “and”; a condition that tells them apart may be missing. Equal values may be shown once. Toxic doses and inconclusive results are not listed. Starred links: 1 amine or outer side, 2 acyl side, 3 side chain; linkers in the order of their positions; H or OH if unused. Positions of bridges follow the written chain, without caps; N, C: chain ends. Non-standard residues stand in square brackets, D forms with d. Residues, ends and D or L forms follow the SMILES beside them. Chains are numbered I, II in the order given. Actinocin(9to1) = Cc1c2oc3c(C)ccc(C(=O)[*:1])c3nc-2c(C(=O)[*:2])c(N)c1=O; NMeV = CN[CH](C(=O)O)C(C)C; Pip = O=C(O)[CH]1CCCCN1; Sar = CNCC(=O)O

Tested on: BDF1 mice, P388 leukemia ip, median survival T/C
Test: NCI In Vivo Anticancer Drug Screen. Data for tumor model P388 Leukemia (intraperitoneal) in B6D2F1 (BDF1) mice
Conditions: endpoint: median survival time, higher = longer survival
Method in brief: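 Mice carrying the transplantable tumour receive compound or vehicle. Survival is followed in each arm, and the treated measure is divided by the vehicle measure.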

[1] = dose: 50.0 mg/kg/injection, schedule: Q01DX005 (ip), vehicle: saline with Tween-80
[2] = dose: 100.0 mg/kg/injection, schedule: Q01DX005 (ip), vehicle: saline with Tween-80
[3] = dose: 100.0 mg/kg/injection, schedule: Q04DX003 (ip), vehicle: saline sonified
[4] = dose: 200.0 mg/kg/injection, schedule: Q04DX003 (ip), vehicle: saline sonified
[5] = dose: 400.0 mg/kg/injection, schedule: Q04DX003 (ip), vehicle: saline sonified
[6] = dose: 100.0 mg/kg/injection, schedule: Q04DX003 (ip), vehicle: saline with Tween-80
[7] = dose: 200.0 mg/kg/injection, schedule: Q04DX003 (ip), vehicle: saline with Tween-80
[8] = dose: 50.0 mg/kg/injection, schedule: Q01DX009 (ip), vehicle: saline with Tween-80
[9] = dose: 200.0 mg/kg/injection, schedule: Q01DX009 (ip), vehicle: saline with Tween-80
[10] = dose: 100.0 mg/kg/injection, schedule: Q01DX009 (ip), vehicle: saline with Tween-80
[11] = dose: 100.0 mg/kg/injection, schedule: Q04DX003 (ip), vehicle: Klucel (hydroxypropylcellulose) (HPC)
[12] = dose: 12.5 mg/kg/injection, schedule: Q01DX009 (ip), vehicle: Klucel (hydroxypropylcellulose) (HPC)
[13] = dose: 25.0 mg/kg/injection, schedule: Q01DX009 (ip), vehicle: Klucel (hydroxypropylcellulose) (HPC)
[14] = dose: 100.0 mg/kg/injection, schedule: Q01DX009 (ip), vehicle: Klucel (hydroxypropylcellulose) (HPC)
[15] = dose: 400.0 mg/kg/injection, schedule: Q01DX009 (ip), vehicle: saline with Tween-80
[16] = dose: 400.0 mg/kg/injection, schedule: Q04DX003 (ip), vehicle: saline with Tween-80

Compound: Cc1ccc(SS(=O)(=O)c2ccc(C)cc2)cc1
- T/C (dose: 25.0 mg/kg/injection, schedule: Q01DX009 (ip), vehicle: saline sonified): 108 % of control
- T/C (dose: 50.0 mg/kg/injection, schedule: Q01DX009 (ip), vehicle: saline sonified): 117 % of control
- T/C (dose: 100.0 mg/kg/injection, schedule: Q01DX009 (ip), vehicle: saline sonified): 117 % of control

Compound: O=S1ON=C(C2CCC(C3=NOS(=O)O3)C2)O1 (centres undefined)
- T/C (dose: 25.0 mg/kg/injection, schedule: Q01DX005 (ip), vehicle: saline with Tween-80): 97 % of control
- T/C [1]: 104 % of control
- T/C [2]: 114 % of control

Compound: ClC(Cl)(Cl)CC(Br)c1ccccc1 (centres undefined)
- T/C [3]: 91 % of control
- T/C [4]: 100 % of control
- T/C [5]: 100 % of control

Compound: Oc1cc(OCCCc2ccc(F)cc2)cc2ccc3ccccc3c12
- T/C [6]: 112 % of control
- T/C [7]: 86 % of control

Compound: NNc1ncnc2c(C3OC(CO)C(O)C3O)[nH]nc12 (centres undefined)
- T/C (dose: 20.0 mg/kg/injection, schedule: Q01DX009 (ip), vehicle: water): 100 % of control
- T/C (dose: 30.0 mg/kg/injection, schedule: Q01DX009 (ip), vehicle: water): 105 % of control
- T/C (dose: 45.0 mg/kg/injection, schedule: Q01DX009 (ip), vehicle: water): 110 % of control
- T/C (dose: 67.0 mg/kg/injection, schedule: Q01DX009 (ip), vehicle: water): 95 % of control
- T/C (dose: 100.0 mg/kg/injection, schedule: Q01DX009 (ip), vehicle: water): 100 % of control

Compound: COc1cc(N2C(N)=NC(N)=NC2(C)C)cc(OC)c1OC
- T/C (dose: 6.25 mg/kg/injection, schedule: Q04DX003 (ip), vehicle: saline): 100 % of control
- T/C (dose: 12.5 mg/kg/injection, schedule: Q04DX003 (ip), vehicle: saline): 115 % of control
- T/C (dose: 25.0 mg/kg/injection, schedule: Q04DX003 (ip), vehicle: saline): 100 % of control

Compound: COc1ccc2c(c1)NC(=O)C2(C)SC (centres undefined)
- T/C (dose: 12.5 mg/kg/injection, schedule: Q04DX003 (ip), vehicle: saline with Tween-80): 103 % of control
- T/C (dose: 25.0 mg/kg/injection, schedule: Q04DX003 (ip), vehicle: saline with Tween-80): 97 % of control
- T/C (dose: 50.0 mg/kg/injection, schedule: Q04DX003 (ip), vehicle: saline with Tween-80): 106 % of control

Compound: Cc1c2oc3c(C)ccc(C(=O)NC4C(=O)NC(C(C)C)C(=O)N5CCCCC5C(=O)N(C)CC(=O)N(C)C(C(C)C)C(=O)OC4C)c3nc-2c(C(=O)NC2C(=O)NC(C(C)C)C(=O)N3CCCCC3C(=O)N(C)CC(=O)N(C)C(C(C)C)C(=O)OC2C)c(N)c1=O (centres undefined) (I: TV[Pip][Sar][NMeV] / II: TV[Pip][Sar][NMeV]; ester I:1-I:C, II:1-II:C; linker I:N-II:N via Actinocin(9to1); configuration not given here)
- T/C (dose: 0.25 mg/kg/injection, schedule: Q01DX009 (ip), vehicle: saline + alcohol): 114 % of control
- T/C (dose: 0.75 mg/kg/injection, schedule: Q04DX003 (ip), vehicle: saline + alcohol): 116 % of control
- T/C (dose: 2.0 mg/kg/injection, schedule: Q01DX009 (ip), vehicle: saline + alcohol): 162 % of control
- T/C (dose: 4.0 mg/kg/injection, schedule: Q01DX009 (ip), vehicle: saline + alcohol): 180 % of control
- T/C (dose: 6.0 mg/kg/injection, schedule: Q04DX003 (ip), vehicle: saline + alcohol): 160 % of control
- T/C (dose: 12.0 mg/kg/injection, schedule: Q04DX003 (ip), vehicle: saline + alcohol): 155 % of control

Compound: CCCCCCCCCCCC(=O)Oc1c(Cl)c(Cl)c(C#N)c(Cl)c1Cl
- T/C [8]: 94 % of control
- T/C [9]: 86 % of control

Compound: O=C(O)CNC(=O)CNC(=O)C(Br)Cc1ccccc1 (centres undefined)
- T/C (dose: 25.0 mg/kg/injection, schedule: Q01DX009 (ip), vehicle: saline with Tween-80): 95 % of control
- T/C (dose: 25.0 mg/kg/injection, schedule: Q04DX003 (ip), vehicle: Klucel (hydroxypropylcellulose) (HPC)): 104 % of control
- T/C [8]: 87 % of control
- T/C (dose: 50.0 mg/kg/injection, schedule: Q04DX003 (ip), vehicle: Klucel (hydroxypropylcellulose) (HPC)): 104 % of control
- T/C [10]: 100 % of control
- T/C [11]: 91 % of control and 100 % of control

Compound: COC(=O)C(CCSC)NC(=O)CNC(=O)OC(C)(C)C (centres undefined)
- T/C [1]: 100 % of control
- T/C [2]: 105 % of control
- T/C (dose: 200.0 mg/kg/injection, schedule: Q01DX005 (ip), vehicle: saline with Tween-80): 102 % of control

Compound: CC(C(=O)O)C(=O)O.[NH-]CC[NH-].[Pt+2]
- T/C (dose: 3.13 mg/kg/injection, schedule: Q01DX009 (ip), vehicle: water): 167 % of control
- T/C (dose: 6.25 mg/kg/injection, schedule: Q01DX009 (ip), vehicle: water): 181 % of control
- T/C (dose: 12.5 mg/kg/injection, schedule: Q01DX009 (ip), vehicle: water): 90 % of control
- T/C (dose: 25.0 mg/kg/injection, schedule: Q01DX009 (ip), vehicle: water): 214 % of control

Compound: C[CH2][Sn]([CH2]C)([CH2]C)[NH]S(=O)(=O)c1ccc(C)cc1
- T/C (dose: 0.39 mg/kg/injection, schedule: Q01DX009 (ip), vehicle: Klucel (hydroxypropylcellulose) (HPC)): 100 % of control
- T/C (dose: 0.78 mg/kg/injection, schedule: Q01DX009 (ip), vehicle: Klucel (hydroxypropylcellulose) (HPC)): 115 % of control
- T/C (dose: 3.12 mg/kg/injection, schedule: Q01DX001 (ip), vehicle: Klucel (hydroxypropylcellulose) (HPC)): 100 % of control
- T/C (dose: 6.25 mg/kg/injection, schedule: Q01DX001 (ip), vehicle: Klucel (hydroxypropylcellulose) (HPC)): 90 % of control
- T/C (dose: 12.5 mg/kg/injection, schedule: Q01DX001 (ip), vehicle: Klucel (hydroxypropylcellulose) (HPC)): 90 % of control
- T/C (dose: 18.0 mg/kg/injection, schedule: Q01DX001 (ip), vehicle: Klucel (hydroxypropylcellulose) (HPC)): 104 % of control

Compound: C=CCNc1ccc(C)cc1
- T/C [12]: 110 % of control
- T/C [13]: 116 % of control
- T/C (dose: 50.0 mg/kg/injection, schedule: Q01DX009 (ip), vehicle: Klucel (hydroxypropylcellulose) (HPC)): 116 % of control
- T/C [10]: 122 % of control

Compound: CCCCCCCCCCCCCCCCOc1ccc(C(C)(C)C)cc1
- T/C (dose: 37.5 mg/kg/injection, schedule: Q01DX001 (ip), vehicle: saline sonified): 100 % of control
- T/C (dose: 75.0 mg/kg/injection, schedule: Q01DX001 (ip), vehicle: saline sonified): 100 % of control
- T/C (dose: 150.0 mg/kg/injection, schedule: Q01DX001 (ip), vehicle: saline sonified): 100 % of control

Compound: CC(=O)C(=Cc1c[nH]c2ccccc12)C(C)=O
- T/C [12]: 92 % of control
- T/C [13]: 90 % of control
- T/C [14]: 110 % of control
- T/C (dose: 100.0 mg/kg/injection, schedule: Q04DX003 (ip), vehicle: water): 105 % of control
- T/C (dose: 200.0 mg/kg/injection, schedule: Q04DX003 (ip), vehicle: water): 120 % of control

Compound: O=C(O)CCCCCCCCC(=O)O
- T/C [8]: 98 % of control
- T/C [10]: 98 % of control
- T/C [9]: 94 % of control
- T/C [15]: 93 % of control

Compound: O=C(/C=C\c1ccc2c(c1)OCO2)/C=C/c1ccc2c(c1)OCO2
- T/C [14]: 104 % of control
- T/C [3]: 100 % of control
- T/C (dose: 200.0 mg/kg/injection, schedule: Q01DX009 (ip), vehicle: Klucel (hydroxypropylcellulose) (HPC)): 100 % of control
- T/C [4]: 109 % of control
- T/C (dose: 400.0 mg/kg/injection, schedule: Q01DX009 (ip), vehicle: Klucel (hydroxypropylcellulose) (HPC)): 95 % of control
- T/C [5]: 100 % of control

Compound: FC(F)(F)c1nc2nc(Cl)c(Cl)nc2n1CCCN1CCOCC1
- T/C [6]: 105 % of control
- T/C [7]: 115 % of control
- T/C [16]: 110 % of control

Compound: CC1(C)Oc2nc(N)nc(N)c2C1c1ccc(Cl)cc1 (centres undefined)
- T/C [11]: 104 % of control
- T/C (dose: 200.0 mg/kg/injection, schedule: Q04DX003 (ip), vehicle: Klucel (hydroxypropylcellulose) (HPC)): 100 % of control
- T/C (dose: 400.0 mg/kg/injection, schedule: Q04DX003 (ip), vehicle: Klucel (hydroxypropylcellulose) (HPC)): 95 % of control

Compound: O=C(/C=C/c1ccc(Cl)cc1Cl)c1ccc(Cl)cc1
- T/C [10]: 104 % of control
- T/C [9]: 104 % of control
- T/C [15]: 100 % of control

Compound: CCSC(=O)CC
- T/C [8]: 95 % of control
- T/C [10]: 105 % of control
- T/C [6]: 104 % of control
- T/C [9]: 100 % of control
- T/C [7]: 104 % of control
- T/C [16]: 100 % of control

Compound: NC(=O)NC(c1ccccc1)C(NC(N)=O)c1ccccc1 (centres undefined)
- T/C [8]: 110 % of control
- T/C [10]: 104 % of control
- T/C [9]: 91 % of control
